We go through three molecules from PMC5838524 (Molecular Informatics, 2018).

Common to all, as to assay: Gal4 hybrid reporter gene assay
Holding throughout (type): cell-based
Details in all cases: agonist mode; printed as 'inactive' (no significant transactivation at 30 μM)
Background: Reporter assays use an easily measured gene product as a stand-in for the process of interest.

The target of test [1] is T1, PPARα (Homo sapiens, UniProt Q07869).
T1 sequence (Q07869 167-468 limits assumed): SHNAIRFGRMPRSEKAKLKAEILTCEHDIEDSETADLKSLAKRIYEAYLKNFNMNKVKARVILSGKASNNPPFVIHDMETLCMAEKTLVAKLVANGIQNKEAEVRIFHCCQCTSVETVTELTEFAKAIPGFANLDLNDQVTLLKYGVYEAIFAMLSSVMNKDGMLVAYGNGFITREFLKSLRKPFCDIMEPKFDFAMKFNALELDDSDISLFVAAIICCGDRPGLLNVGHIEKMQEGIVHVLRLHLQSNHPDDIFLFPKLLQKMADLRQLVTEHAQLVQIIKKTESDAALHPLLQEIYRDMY

Test [2] deals with T2, PPARδ (Homo sapiens, UniProt Q03181).
T2 sequence (Q03181 139-441 limits assumed): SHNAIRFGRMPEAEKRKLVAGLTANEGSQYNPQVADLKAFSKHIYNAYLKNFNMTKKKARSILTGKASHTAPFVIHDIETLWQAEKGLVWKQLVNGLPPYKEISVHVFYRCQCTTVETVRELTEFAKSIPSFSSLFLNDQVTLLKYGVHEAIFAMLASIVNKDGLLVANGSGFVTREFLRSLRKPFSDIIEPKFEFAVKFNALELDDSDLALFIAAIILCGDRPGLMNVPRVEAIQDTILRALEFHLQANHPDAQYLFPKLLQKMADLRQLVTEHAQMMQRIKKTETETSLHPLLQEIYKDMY

Test [3] has as its target T3, RXRα (Homo sapiens, UniProt P19793).
T3 sequence (P19793 225-462 limits assumed): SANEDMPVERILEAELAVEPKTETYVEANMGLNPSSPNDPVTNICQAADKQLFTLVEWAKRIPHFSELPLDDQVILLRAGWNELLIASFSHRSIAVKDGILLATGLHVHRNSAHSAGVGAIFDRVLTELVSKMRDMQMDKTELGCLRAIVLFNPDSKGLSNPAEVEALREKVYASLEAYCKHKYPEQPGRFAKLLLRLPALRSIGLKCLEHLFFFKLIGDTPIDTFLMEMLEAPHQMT

Test [4] has as its target T4, RXRβ (Homo sapiens, UniProt P28702).
T4 sequence (P28702 296-533 limits assumed): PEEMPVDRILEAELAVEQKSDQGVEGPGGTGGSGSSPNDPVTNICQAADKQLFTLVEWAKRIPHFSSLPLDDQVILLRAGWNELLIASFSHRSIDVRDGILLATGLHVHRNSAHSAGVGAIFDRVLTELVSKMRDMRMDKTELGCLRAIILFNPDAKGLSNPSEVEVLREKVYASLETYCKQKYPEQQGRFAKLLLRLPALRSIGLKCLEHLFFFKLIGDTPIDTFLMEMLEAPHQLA

The target in test [5] is T5, RXRγ (Homo sapiens, UniProt P48443).
T5 sequence (P48443 231-459 limits assumed): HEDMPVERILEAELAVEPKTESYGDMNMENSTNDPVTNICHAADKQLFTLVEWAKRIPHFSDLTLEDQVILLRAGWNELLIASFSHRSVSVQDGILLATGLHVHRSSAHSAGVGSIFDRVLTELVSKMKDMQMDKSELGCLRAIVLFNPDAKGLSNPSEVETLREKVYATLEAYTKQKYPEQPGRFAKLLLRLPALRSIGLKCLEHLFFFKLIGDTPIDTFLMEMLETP

Turning to `O=C(O)c1cccc(NC(=O)c2ccc(-c3ccccc3)s2)c1` [compound 1, design 1], the EC50 in test [1] and in test [2] was above 30 µM in each case.

For the molecule `O=C(O)c1ccc(-c2cc(F)ccc2OCc2ccc(F)cc2)c(C(F)(F)F)c1` [compound 2, design 2], the EC50 in test [1] and in test [2] was above 30 µM throughout.

In the case of `O=C(O)c1ccc(-c2cccc(O)c2)cc1OC1CCCC1` [compound 3, design 3], the EC50 in test [3], in test [4], in test [5] and in test [2] was above 30 µM throughout.

A word on the EC50: it is the concentration giving half of the maximal effect. Low readings indicate greater potency, high ones weaker potency.
